Laboratory results taken from article PMC4104496 (Clinical cancer research : an official journal of the …, 2012).
Where two headings read alike, the source gives them in different places.

Key:
[1] = for Cmax/dose / Tmax: iv
clinical = details: human, in vivo, iv

Compound	AUC/dose ([1]; human, in vivo)	CL or CL/F ([1]; human, in vivo)	T1/2 (terminal elimination half-life) ([1]; human, in vivo)	Cmax/dose ([1]; human, in vivo)	Tmax ([1]; human, in vivo)	V or V/F ([1]; in vivo)	trough concentrations ([1]; in vivo)	also measured
CCc1c2c(nc3ccc(OC(=O)N4CCC(NCCCCC(=O)O)CC4)cc13)-c1cc3c(c(=O)n1C2)COC(=O)C3(O)CC (stereo not drawn) [APC, 7-ethyl-10-(4-N-(5-aminopentanoic acid)-1-piperidine)carbonyloxycamptothecin]	13 (73) h*ng/mL/mg/m^2	96 (49) L/h/m^2	58 (8) d	0.08 (118) ng/mL/mg/m^2	20 (41) h	170 L/m^2	detectable	terminal disposition half-life ([1]; human, in vivo): 53 days
CCc1c2c(nc3ccc(OC(=O)N4CCC(N)CC4)cc13)-c1cc3c(c(=O)n1C2)COC(=O)[C@]3(O)CC [NPC, 7-ethyl-10-(4-amino-1-piperidino) carbonyloxycamptothecin]	–	–	–	–	–	–	–	plasma concentrations ([1]; in vivo): near the limit of quantitation
CCc1c2c(nc3ccc(O[C@@H]4O[C@H](C(=O)O)[C@@H](O)[C@H](O)[C@H]4O)cc13)-c1cc3c(c(=O)n1C2)COC(=O)[C@]3(O)CC [SN-38-G, SN-38-glucuronide]	–	–	–	–	–	–	–	T1/2 (terminal elimination half-life) ([1]; Mean (%CV), plasma, 76 patients, after etirinotecan pegol 58 to 245 mg/m^2): 61 (37) d; trough concentrations ([1]; after etirinotecan pegol dosing with all 3 schedules): detectable; terminal disposition half-life ([1]; plasma, patients, after etirinotecan pegol administration): 61 days
CCc1c2c(nc3ccc(O)cc13)-c1cc3c(c(=O)n1C2)COC(=O)[C@]3(O)CC [SN-38]	8 (52) h*ng/mL/mg/m^2	170 (59) L/h/m^2	50 (28) d	0.02 (55) ng/mL/mg/m^2	13 (170) h	27 L/m^2	detectable	–
CCc1c2c(nc3ccc(OC(=O)N4CCC(N5CCCCC5)CC4)cc13)-c1cc3c(c(=O)n1C2)COC(=O)[C@]3(O)CC [irinotecan, reference compound]	–	–	–	–	–	–	detectable	Tmax (clinical): 0.167 days
